Experimental findings from patent US11225503B2, “Crystobactamides” (HELMHOLTZ-ZENTRUM FÜR INFEKTIONSFORSCHUNG GMBH, priority 2013, dated 2022) are described below.

The subject of data set [1] is Escherichia coli ATCC25922. The data set is described as follows: Susceptibility testing, MIC microdilution. In kind it is cell-based. Summed up:
(§1)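 Growth inhibition is scored by eye after 18-48 h at 30-37° C. on a shaker, the MIC being the lowest concentration with no visible growth. Cultures start at 10^4-10^6 cfu/mL in Müller-Hinton broth for E. coli, tryptic soy broth for E. faecalis and Myc medium for Candida.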
On the technique in general: Broth dilution looks for growth in wells or tubes with falling amounts of substance.

For data set [2], the system named is Staphylococcus aureus ATCC29213. Nature of the data set: Susceptibility testing, MIC microdilution. In kind it is cell-based.
The subject of data set [3] is Escherichia coli DSM-26863 (tolC3). Nature of the data set: Susceptibility testing, MIC microdilution. The class given is cell-based. The settings on record: Escherichia coli, DSM26863. A digest of the protocol: as §1
The subject of data set [4] is Pseudomonas aeruginosa PA14. The data set is described as follows: Susceptibility testing, MIC microdilution. The class given is cell-based.
The subject of data set [5] is Pseudomonas aeruginosa ATCC27853. Nature of the data set: Susceptibility testing, MIC microdilution. In kind it is cell-based.
In data set [6] the test system is Pichia anomala DSM-6766. Nature of the data set: Susceptibility testing, MIC microdilution. The class given is cell-based. The settings on record: Hansenula anomala, DSM6766. A digest of the protocol:
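MIC read visually as the lowest compound concentration preventing visible growth. Overnight cultures diluted to 10^4-10^6 cfu/mL; E. faecalis grown in TSB, yeast in Myc medium with 50 mM HEPES, E. coli in Müller-Hinton broth; plates shaken 750 rpm at 30-37° C. for 18-48 h.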

For data set [7], the system named is Streptococcus pneumoniae DSM-20566. Nature of the data set: Susceptibility testing, MIC microdilution. In kind it is cell-based. The following applies: Streptococcus pneumoniae, DSM20566.
In data set [8] the test system is Acinetobacter baumannii DSM-30008. The data set is described as follows: Susceptibility testing, MIC microdilution. The class given is cell-based. The following applies: Acinetobacter baumannii, DSM30008. A digest of the protocol:
as §1

Data set [9] concerns Burkholderia cenocepacia DSM-16553. Nature of the data set: Susceptibility testing, MIC microdilution. In kind it is cell-based. The settings on record: Burkholderia cenocepacia, DSM16553.
In data set [10] the test system is Escherichia coli DSM-1116. Nature of the data set: Susceptibility testing, MIC microdilution. The class given is cell-based. The following applies: Escherichia coli, DSM1116. A digest of the protocol: as §1
Data set [11] concerns Candida albicans DSM-1665. The data set is described as follows: Susceptibility testing, MIC microdilution. The class given is cell-based. The settings on record: Candida albicans, DSM1665. A digest of the protocol:
as §1

The subject of data set [12] is Escherichia coli ATCC35218. The data set is described as follows: Susceptibility testing, MIC microdilution. In kind it is cell-based. Summed up: as §1
Data set [13] addresses T1, E. coli gyrase (Escherichia coli, UniProt P0AES4+P0AES6).
T1 construct: purchased Inspiralis (Norwich, UK)
The data set is described as follows: Gyrase supercoiling (inhibition) assay. In kind it is biochemical. As for the experimental part: To test the anti-gyrase activity of cystobactamides, commercial E. coli gyrase supercoiling kits (Inspiralis) were used.
For IC50 determination the band intensity of the supercoiled plasmid was determined using Adobe Photoshop, plotted vs. [cystobactamide] and fitted using Hill's equation.
All natural products stock solutions and dilutions were prepared in 100% DMSO and added to the supercoiling reactions giving a final DMSO concentration of 5% (v/v).
(§2) Following natural product concentrations were used in the assay:
Control reactions were: no enzyme and a standard reaction in presence of 5% (v/v) DMSO.
All reaction samples were equilibrated for 10 minutes at room-temperature in the absence of DNA. Then the relaxed plasmid was added to start the reaction.
To determine IC50 values, the formation of supercoiled (gyrase) or relaxed (topoisomerase I, II IV) plasmid was quantified using Adobe Photoshop (Histogram mode). […] All determined IC50 values are the averages of three independent experiments.

In data set [14] the target is T2, E. coli topoisomerase IV (Escherichia coli, UniProt P0AFI2+P20083).
T2 construct: purchased Inspiralis (Norwich, UK)
T2 sequence (P20083 whole entry): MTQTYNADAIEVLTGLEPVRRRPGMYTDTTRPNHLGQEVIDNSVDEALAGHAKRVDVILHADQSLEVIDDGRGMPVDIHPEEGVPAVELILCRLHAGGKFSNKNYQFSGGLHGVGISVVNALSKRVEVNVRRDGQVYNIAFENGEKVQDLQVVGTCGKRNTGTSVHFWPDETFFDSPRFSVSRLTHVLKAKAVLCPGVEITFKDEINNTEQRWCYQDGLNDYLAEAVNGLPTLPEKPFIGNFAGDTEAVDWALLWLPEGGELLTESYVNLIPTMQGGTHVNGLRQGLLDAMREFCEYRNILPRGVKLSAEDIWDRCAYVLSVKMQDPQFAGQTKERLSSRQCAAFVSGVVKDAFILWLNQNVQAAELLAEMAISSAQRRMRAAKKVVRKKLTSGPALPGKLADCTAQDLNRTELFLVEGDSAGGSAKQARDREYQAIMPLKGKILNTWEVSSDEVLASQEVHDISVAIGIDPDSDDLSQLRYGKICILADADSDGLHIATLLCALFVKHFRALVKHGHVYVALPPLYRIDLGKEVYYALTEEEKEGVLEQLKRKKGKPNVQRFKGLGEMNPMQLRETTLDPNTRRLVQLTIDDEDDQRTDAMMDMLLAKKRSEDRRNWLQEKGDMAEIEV
T2 sequence (P0AFI2 whole entry): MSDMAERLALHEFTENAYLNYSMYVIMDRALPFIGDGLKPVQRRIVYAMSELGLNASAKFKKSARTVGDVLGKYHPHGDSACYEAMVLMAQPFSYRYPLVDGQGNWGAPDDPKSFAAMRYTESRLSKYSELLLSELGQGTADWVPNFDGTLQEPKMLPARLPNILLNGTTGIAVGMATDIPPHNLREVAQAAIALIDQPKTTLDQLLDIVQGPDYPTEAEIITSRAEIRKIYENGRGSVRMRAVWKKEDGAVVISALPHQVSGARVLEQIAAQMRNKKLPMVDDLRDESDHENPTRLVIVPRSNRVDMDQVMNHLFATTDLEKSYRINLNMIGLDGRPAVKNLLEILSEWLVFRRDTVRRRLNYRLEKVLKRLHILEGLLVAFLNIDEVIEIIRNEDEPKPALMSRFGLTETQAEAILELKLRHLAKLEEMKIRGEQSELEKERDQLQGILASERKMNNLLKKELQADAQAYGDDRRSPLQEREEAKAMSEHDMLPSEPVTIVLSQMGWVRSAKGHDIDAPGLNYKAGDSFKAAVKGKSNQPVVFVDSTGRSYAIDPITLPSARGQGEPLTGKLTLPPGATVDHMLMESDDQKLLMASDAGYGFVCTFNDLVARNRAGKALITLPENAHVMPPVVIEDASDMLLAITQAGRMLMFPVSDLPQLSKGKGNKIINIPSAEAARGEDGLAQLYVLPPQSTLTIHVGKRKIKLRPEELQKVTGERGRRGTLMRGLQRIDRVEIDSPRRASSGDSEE
Nature of the data set: Topoisomerase IV relaxation (inhibition) assay. In kind it is biochemical. On the procedure:
Prokaryotic DNA gyrase and topoisomerase IV share a high degree of homology and gyrase inhibitors typically show a topoisomerase IV inhibitory activity.^8 To test the influence of the cystobactamides on topoisomerase IV a commercial E. coli topoisomerase IV kit (Inspiralis) was used.
The topo IV reactions were titrated with varying concentrations of A-D and resolved by agarose gel electrophoresis. For IC50 determination the band intensity of the supercoiled plasmid was determined using Adobe Photoshop, plotted vs. [cystobactamide] and fitted using Hill's equation.
as §2
Control reactions were: no enzyme and a standard reaction in presence of 5% (v/v) DMSO. All reaction samples were equilibrated for 10 minutes at room-temperature in the absence of DNA. Then the relaxed plasmid was added to start the reaction.
To determine IC50 values, the formation of supercoiled (gyrase) or relaxed (topoisomerase I, II IV) plasmid was quantified using Adobe Photoshop (Histogram mode). Plotting of these values versus the compound concentration yielded sigmoidal shaped curves, which were fitted using Hill's equation (Origin Pro 8.5). All determined IC50 values are the averages of three independent experiments.

Data set [15] is described as follows: in vitro. In kind it is cell-based, Chinese hamster. The following applies: Chinese hamster. As for the experimental part: Human HCT-116 colon carcinoma cells (CCL-247) were obtained from the American Type Culture Collection (ATCC) and Chinese hamster ovary CHO-K1 cells (ACC-110) were obtained from the German Collection of Microorganisms and Cell Cultures (DSMZ). Both cell lines were cultured under the conditions recommended by the respective depositor. Primary HUVEC (human umbilical vein endothelial cells; single donor) were purchased from PromoCell (Heidelberg, Germany) and cultured in Endothelial Cell Growth Medium (PromoCell) containing the following supplements: 2% FCS, 0.4% ECGS, 0.1 ng/ml EGF, 1 ng/ml bFGF, 90 μg/ml heparin, 1 μg/ml hydrocortisone.
Cells were seeded at 6×10^3 cells per well of 96-well plates (Corning CellBind®) in complete medium (180 μl) and directly treated with cystobactamides dissolved in methanol in a serial dilution. Compound were tested in duplicate for 5 d, as well as the internal solvent control. After 5 d incubation, 5 mg/ml MTT in PBS (20 μL) was added per well and it was further incubated for 2 h at 37° C.[7] The medium was then discarded and cells were washed with PBS (100 μl) before adding 2-propanol/10N HCl (250:1, v/v; 100 μl) in order to dissolve formazan granules. The absorbance at 570 nm was measured using a microplate reader (EL808, Bio-Tek Instruments Inc.).

Setting [16] is: IC50 in the Gyrase inhibition assay, table, averages of three independent experiments.
Setting [17] is: apparent IC50, E. coli gyrase, E. coli gyrase 20.5 nM eq. 1 unit.

SMILES strings stand for the structures. Converted amounts (≈) assume the structure as drawn. Like-named read-outs stand apart in the source and are kept apart here.

T1 sequence (P0AES4 whole entry, one chain of several): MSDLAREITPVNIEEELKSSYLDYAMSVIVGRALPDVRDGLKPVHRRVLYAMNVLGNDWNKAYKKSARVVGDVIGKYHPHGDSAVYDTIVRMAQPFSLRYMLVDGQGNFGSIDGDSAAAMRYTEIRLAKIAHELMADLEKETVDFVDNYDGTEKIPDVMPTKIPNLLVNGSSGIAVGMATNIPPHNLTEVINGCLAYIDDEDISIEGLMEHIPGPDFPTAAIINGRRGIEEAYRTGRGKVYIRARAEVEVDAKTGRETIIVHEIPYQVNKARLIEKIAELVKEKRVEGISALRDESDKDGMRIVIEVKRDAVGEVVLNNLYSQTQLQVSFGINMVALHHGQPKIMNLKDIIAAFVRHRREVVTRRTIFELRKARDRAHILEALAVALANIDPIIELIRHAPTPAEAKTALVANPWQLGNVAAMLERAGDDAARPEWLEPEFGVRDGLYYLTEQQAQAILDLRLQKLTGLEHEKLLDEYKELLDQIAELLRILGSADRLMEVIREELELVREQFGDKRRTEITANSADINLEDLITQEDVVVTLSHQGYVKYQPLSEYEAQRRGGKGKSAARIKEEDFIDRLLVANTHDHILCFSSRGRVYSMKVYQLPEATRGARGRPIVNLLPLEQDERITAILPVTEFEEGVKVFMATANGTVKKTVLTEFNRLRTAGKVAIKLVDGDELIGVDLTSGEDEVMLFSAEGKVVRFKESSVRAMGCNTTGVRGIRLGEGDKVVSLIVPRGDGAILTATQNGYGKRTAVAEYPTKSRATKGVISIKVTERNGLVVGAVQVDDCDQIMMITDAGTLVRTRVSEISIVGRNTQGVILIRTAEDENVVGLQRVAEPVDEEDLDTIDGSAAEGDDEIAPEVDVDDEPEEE

For orientation: MIC means the lowest concentration that inhibits growth of the organism. Low values mean greater potency, high ones weaker potency. The IC50 is the midpoint of a concentration-inhibition curve. With `CO[C@H](C(=O)Nc1ccc(C(=O)Nc2ccc(C(=O)Nc3ccc(C(=O)O)cc3OC(C)C)c(O)c2OC(C)C)cc1)[C@H](NC(=O)c1ccc(NC(=O)c2ccc([N+](=O)[O-])cc2)cc1)C(=O)O` [cystobactamide A, Cystobactamide A], the MIC in data set [1] was 0.5 µg/mL (≈ 0.543 µM); in data set [2], 0.12 µg/mL (≈ 0.13 µM); in [3], 0.5 µg/mL (≈ 0.543 µM); in data set [4] it was above 59 µg/mL; in data set [5] it was above 59 µg/mL; in data set [6] it was above 59 µg/mL. Further, the MIC in data set [7] is 0.23 µg/mL (≈ 0.25 µM); in data set [8], 7.4 µg/mL (≈ 8.04 µM); in data set [9], above 59 µg/mL; in [10], 0.9 µg/mL (≈ 0.977 µM); in data set [11], above 59 µg/mL; in data set [12], 0.9 µg/mL (≈ 0.977 µM). Moreover, the IC50 in [13] (IC50 gyrase, E. coli gyrase) is 6 µM; in [13] (setting [16]), 6 µM; in [13] (setting [17]), 6 µM; in data set [14] (IC50 Topo IV, E. coli topoisomerase IV), around 815 µM; in data set [14] (IC50 in the E. coli Topoisomerase IV inhibition assay, averages of three independent experiments), above 160 µM. In addition, the “concentration at which E. coli topo IV activity was inhibited (only the highest tested concentration)” value in data set [14] was found to be 815 µM.

A word on the GI50: it is the concentration at which growth is held to half of that of the control. High values mean less potent growth inhibition, low ones more potent growth inhibition. Turning to `CC(C)Oc1cc(C(=O)O)ccc1NC(=O)c1ccc(NC(=O)c2ccc(N)cc2)c(OC(C)C)c1O` [cystobactamide C, Cystobactamide C], the MIC in data set [1] is 8.1 µg/mL (≈ 16 µM); in data set [2] it was 8.1 µg/mL (≈ 16 µM); in [3], 4.1 µg/mL (≈ 8.08 µM); in [4], 65 µg/mL (≈ 128 µM); in data set [5] it was 65 µg/mL (≈ 128 µM); in [6], above 65 µg/mL. The MIC in [7] is 8.1 µg/mL (≈ 16 µM); in [8], 32.5 µg/mL (≈ 64 µM); in [9] it was above 65 µg/mL; in data set [10], 16.3 µg/mL (≈ 32.1 µM); in data set [11], above 65 µg/mL; in data set [12], 16.3 µg/mL (≈ 32.1 µM). In data set [15], this compound had a GI50 at 5 d of around 111 µM. The IC50 in [13] (IC50 gyrase, E. coli gyrase) was 7.2 µM; in [13] (setting [16]), 7.2 µM; in data set [13] (setting [17]) it was 7.7 µM; in [14] (E. coli topoisomerase IV, read-out: IC50 Topo IV), around 300 µM; in data set [14] (averages of three independent experiments, read-out: IC50 in the E. coli Topoisomerase IV inhibition assay), above 60 µM. Also, the “concentration at which E. coli topo IV activity was inhibited (only the highest tested concentration)” value in data set [14] came to 300 µM. In [14] (topo IV vs. gyrase), the “ratios IC50(topo IV)/IC50(gyrase)” value is recorded as around 42.
